Measured values published in patent US20040096456A1, “Method to treat hemophilia” (priority 2003, published 2004).

Assays:
CD4^+ splenocytes = assay: Proliferation assay of CD4+ splenocytes from hemophilia A mice exposed to human fVIII; format: cell-based, mouse; details: for proliferative response, ^3H-thymidine incorporation (FIG. 2): CD4^+ splenocytes from hemophilia A mice immunized with human fVIII, representative experiment; for proliferative response of pooled CD4^+ splenocytes: hemophilia A mice immunized by multiple subcutaneous injections of 5-10 μg recombinant human fVIII in Freund's adjuvant, four independent groups
Experimental: Mice were treated up to 10 times intravenously with 1 μg of purified recombinant human fVIII. CD8^+ depleted spleen cells (so as to leave only CD4^+ T cells; hereafter referred to as “CD4^+ splenocytes”) were used in proliferation assays to test the response to increasing concentrations of fVIII (5-20 nM) and to pools of overlapping synthetic peptides, spanning the sequence of the individual the fVIII domains (fVIII domain pools). Also, the cytokines secreted by CD4^+ splenocytes, after challenge in vitro with fVIII, were determined. The anti-fVIII antibody was measured in the sera as well as their IgG subclass (by ELISA). The inhibitors were measured by the Bethesda assay (Kasper et al., 1975).
Epitope Repertoire on Human fVIII Recognized be CD4^+ Cells from Hemophilia A Mice. The epitope repertoire of the CD4^+ cells sensitized to human fVIII in hemophilia A mice was examined. Mice were immunized by multiple subcutaneous injections of 5-10 μg recombinant human fVIII, emulsified in Freund's adjuvant. This ensured a stronger sensitization of the CD4^+ cells than that obtained after intravenous administration of fVIII. The use of CD4+ splenocytes from mice strongly sensitized to fVIII increases the chances of identifying a comprehensive CD4^+ repertoire, because the CD4^+ cells recognizing individual epitopes on an antigen are scarce among unselected CD4^+ splenocytes.
Four independent groups of 2 to 4 hemophilia A mice were immunized. For each group their CD4^+ splenocytes were pooled, and tested for their proliferative response to fVIII, and to the individual synthetic peptides spanning the sequence of human fVIII. Because of the large number of peptides, all the peptides were tested only in one experiment. In two experiments, peptides spanning the A and C domains were tested. In a fourth experiment, only peptides spanning the Al domain were tested.

CD4^+ blood lymphocytes = assay: 5 day proliferation assay of CD4+ blood lymphocytes with individual A3 and C2 peptides; format: cell-based, human; details: for individual A3 peptides recognized by both patients (FIG. 4): hemophilia A patients with inhibitors # 5 and # 8, peptide 2 μg
Source text: Subiects. Six HIV negative severe hemophilia A patients (3 with inhibitors and 3 without), 4 acquired hemophilia patients (Table 4) and 6 healthy subjects (3 men and 3 women, 34-48 years old) were studied. The acquired hemophilia patients had not received fVIII during the period of time when we studied their CD4^+ response to the fVIII peptides. Among hemophilia A patients, patient #8 had received immune tolerance therapy with high doses of fVIII. The last high dose of fVIII administered as part of the immune tolerance therapy was given approximately 8 months before the first experiment reported here. […] Patient #9 received a prophylactic regimen of weekly injections of standard therapeutic doses of fVIII. All other patients were self treated on an as needed basis. In several hemophilic and healthy subjects we tested the response of CD4^+ blood lymphocytes to fVIII peptides on more than one occasion, at intervals that ranged from a few weeks to several months.
Peripheral blood mononuclear cells (PBMC) were isolated from venous blood and depleted them of CD8^+ T cells (Manfredi et al., 1993), using anti-human CD8 antibody (OKT8; Ortho Diagnostic Systems, Raritan, N.J. or Ancell, Bayport, Minn.) and paramagnetic beads coated with goat anti-mouse IgG antibody (PerSeptive Biosystems, Framingham, Mass.). The CD8^+ depleted PBMC (CD4^+ blood lymphocytes) were used for 5 day proliferation assays (Manfredi et al., […]), using sextuplet wells (2×10^5 cells/well; when cell yield was low, a minimum of 1×10^5 cells/well) and the following stimulants: phytohemagglutinin (Sigma; 10 μg/mL), T cell growth factor (Lymphocult; Biotest Diagnostic Corp., Danville, NJ; final concentration of interleukin 2, 10 U/mL), recombinant human fVIII (Baxter, Glendale, Calif. or Bayer, Elkhart, Ind.; 0.5-1 units/mL; normal plasma concentration: I unit/mL), and the synthetic fVIII peptides, both individually and in pools as described above (final concentration 2 μg/mL of each peptide). Sextuplet wells cultured without any stimulus provided the basal proliferation rate of the cells. We measured cell proliferation from the incorporation of ^3H-thymidine (1 μCi per well, specific activity 6.7 Ci/mmol; Dupont-NEN, Boston, Mass.), expressed as counts per minute (cpm). When an antigen induced a statistically significant (p<0.05) increase in proliferation (assessed using a two-tailed Student's t test), we calculated the stimulation index (SI: ratio between average cpm of cultures in the presence of the antigen and average basal proliferation of the same cells). The use of SI normalizes results, and allows comparison of experiments carried out at different times, and with different subjects.

[1] = healthy subject #8, second experiment

521-540: 20-residue synthetic peptide, residues 521-540 of the A2 domain of human fVIII (PTKSDPRCLTRYYSSFVNME; UniProt P00451 540-559, looked up, fragment)
proliferative response, ^3H-thymidine incorporation (FIG. 2) (CD4^+ splenocytes): recognized

531-550: 20-residue synthetic peptide, residues 531-550 of the A2 domain of human fVIII (RYYSSFVNMERDLASGLIGP; UniProt P00451 550-569, looked up, fragment)
proliferative response, ^3H-thymidine incorporation (FIG. 2) (CD4^+ splenocytes): recognized

2141-2160: 20-residue synthetic peptide, residues 2141-2160 of the C1 domain of human fVIII (NPPIIARYIRLHPTHYSIRS; UniProt P00451 2160-2179, looked up, fragment)
proliferative response of pooled CD4^+ splenocytes (CD4^+ splenocytes): recognized clearly and consistently in all or most experiments

AEPRKNFVKPNETKTYFWKV (listed as Homo sapiens) [1801-1820]
individual A3 peptides recognized by both patients (FIG. 4) (CD4^+ blood lymphocytes): recognized also by patient # 8

CLIGEHLHAGMSTLFLVYSN (listed as Homo sapiens) [2001-2020]
A3 peptides that elicited the strongest response of CD4^+ lymphocytes (CD4^+ blood lymphocytes; Hemophilia A without Inhibitors, Patient 9, t = 1): 2001-2020

DLNSCSMPLGMESKAISDAQ (listed as Homo sapiens) [peptide 2171-2190]
recognition by CD4^+ cells (CD4^+ blood lymphocytes; patient # 8, hemophilia A with inhibitors, C2 peptides): recognized

FATWSPSKARLHLQGRSNAW (listed as Homo sapiens) [peptide 2201-2220]
proliferative response, ^3H-thymidine incorporation (FIG. 2) (CD4^+ splenocytes): recognized | proliferative response of pooled CD4^+ splenocytes (CD4^+ splenocytes): recognized clearly and consistently in all or most experiments

FDCKAWAYFSDVDLEKDVHS (listed as Homo sapiens) [1831-1850]
A3 peptides that elicited the strongest response of CD4^+ lymphocytes (CD4^+ blood lymphocytes; Acquired Hemophilia, Patient 1, t = 2): 1831-1850 | recognition by CD4^+ cells (CD4^+ blood lymphocytes; patients #1 and #2 (acquired hemophilia), in some experiments): recognized

FTPVVNSLDPPLLTRYLRIH (listed as Homo sapiens) [2291-2310]
C2 peptides that elicited the strongest response of CD4^+ lymphocytes (CD4^+ blood lymphocytes; Healthy Subjects, Subject 9, t = 1): 2291-2310

GLIGPLLVCHTNTLNPAHGR (listed as Homo sapiens) [1851-1870]
proliferative response, ^3H-thymidine incorporation (FIG. 2) (CD4^+ splenocytes): recognized

GMSSSPHVLRNRAQSGSVPQ (listed as Homo sapiens) [1711-1730]
recognition by CD4^+ cells (CD4^+ blood lymphocytes; healthy subject #2): recognized

IAAVERLWDYGMSSSPHVLR (listed as Homo sapiens) [peptide 1701-1720]
proliferative response, ^3H-thymidine incorporation (FIG. 2) (CD4^+ splenocytes): recognized | proliferative response of pooled CD4^+ splenocytes (CD4^+ splenocytes): recognized clearly and consistently in all or most experiments | recognition by CD4^+ cells (CD4^+ blood lymphocytes; [1]): recognized strongly | recognition by CD4^+ cells (CD4^+ blood lymphocytes; patient #2, another experiment): recognized | recognition by CD4^+ cells (CD4^+ blood lymphocytes; patient #8, another experiment): recognized

LHLQGRSNAWRPQVNNPKEW (listed as Homo sapiens) [2211-2230]
C2 peptides that elicited the strongest response of CD4^+ lymphocytes (CD4^+ blood lymphocytes; Hemophilia A without Inhibitors, Patient 9, t = 2): 2211-2230

MESKAISDAQITASSYFTNM (listed as Homo sapiens) [2181-2200]
C2 peptides that elicited the strongest response of CD4^+ lymphocytes (CD4^+ blood lymphocytes; Hemophilia A with Inhibitors, Patient 6, t = 1): 2181-2200

NENIHSIHFSGHVFTVRKKE (listed as Homo sapiens) [1951-1970]
individual A3 peptides recognized by both patients (FIG. 4) (CD4^+ blood lymphocytes): recognized also by patient # 8

SFQKKTRHYFIAAVERLWDY (listed as Homo sapiens) [peptide 1691-1710]
experiments in which the peptide (or one or more peptides of the sequence region) was recognized (CD4^+ blood lymphocytes; 8 experiments done with CD4^+ cells from healthy subjects): 7 of the 8 | number of acquired hemophilia patients who recognized the peptide or region (CD4^+ blood lymphocytes; acquired hemophilia patients, not consistent between experiments of the same patient): 1 | recognition by CD4^+ cells (CD4^+ blood lymphocytes; healthy subject #2): did not recognize | number of hemophilia A patients who strongly recognized the peptide (CD4^+ blood lymphocytes; hemophilia A patients with inhibitors): 2 | number of hemophilia A patients who strongly recognized the peptide (CD4^+ blood lymphocytes; hemophilia A patients without inhibitors): 1 | number of hemophilia A patients who strongly recognized the peptide (CD4^+ blood lymphocytes; hemophilia A patients, in only one of the experiments of the same patient): 3 | recognition by CD4^+ cells (CD4^+ blood lymphocytes; patient #8, one experiment): recognized

VEMKKEDFDIYDEDENQSPR (listed as Homo sapiens) [1671-1690]
recognition by CD4^+ cells (CD4^+ blood lymphocytes; patient #8, another experiment): recognized

YDEDENQSPRSFQKKTRHYF (listed as Homo sapiens) [1681-1700]
recognition by CD4^+ cells (CD4^+ blood lymphocytes; [1]): recognized strongly

peptide 71-90: 20-residue synthetic peptide, residues 71-90 of the A1 domain of human fVIII (LLGPTIQAEVYDTVVITLKN; UniProt P00451 90-109, looked up, fragment)
proliferative response of pooled CD4^+ splenocytes (CD4^+ splenocytes): recognized clearly and consistently in all or most experiments

peptide 601-620: 20-residue synthetic peptide, residues 601-620 of the A2 domain of human fVIII (VQLEDPEFQASNIMHSINGY; UniProt P00451 620-639, looked up, fragment)
proliferative response, ^3H-thymidine incorporation (FIG. 2) (CD4^+ splenocytes): recognized | proliferative response of pooled CD4^+ splenocytes (CD4^+ splenocytes): recognized clearly and consistently in all or most experiments

peptide 2131-2150: 20-residue synthetic peptide, residues 2131-2150 of the C1 domain of human fVIII (DSSGIKHNIFNPPIIARYIR; UniProt P00451 2150-2169, looked up, fragment)
proliferative response, ^3H-thymidine incorporation (FIG. 2) (CD4^+ splenocytes): recognized | proliferative response of pooled CD4^+ splenocytes (CD4^+ splenocytes): recognized clearly and consistently in all or most experiments
